Holding throughout (experiment): CellTiter Blue cell viability assay
What all share (format): cell-based, human

One experiment relates to MOLM-13. The conditions noted are these: Homo sapiens, MOLM-13, 48 h; read-out: cellular IC50. An excerpt:
(§1) The human AML cell lines, OCI-AML3 (carrying the NPM1 gene mutation A and the DNMT3A^R882C mutation), IMS-M2 (carrying the NPM1 gene mutation A), OCI-AML2 (with the wild-type NPM1 and DNMT3A^R635W mutation), and SKM-1 and MOLM-13 (with the wild-type NPM1) were previously reported. The cell lines were purchased from the Deutsche Sammelung von Mikroorganismen und Zellkulturen (DSMZ) (Braunschweig, Germany) cell bank and maintained according to the vendors’ instructions. Briefly, cultured cells were split every 3 days and maintained in an exponential growth phase. The cell lines were tested for mycoplasma using the Universal Mycoplasma Detection Kit (ATCC). The OCI-AML3 were grown in α-MEM supplemented with 20% fetal bovine serum, 100 U/mL penicillin, and 100 μg/mL streptomycin (P/S), and all other cell lines were cultured in RPMI and supplemented with a 10–20% fetal bovine serum and 100 U/mL penicillin and 100 μg/mL streptomycin. The cells were kept at 37 °C in a 5% CO2 incubator. Prior to screening, the appropriate cell concentration for all cell lines was determined. For the cell lines’ treatments, cells were maintained as follows: OCI-AML3 at 0.25 × 10^6/mL, OCI-AML2 and IMS-M2 at 0.35 × 10^6/mL, and SKM-1 and MOLM-13 at 0.5 × 10^6/mL. The compounds were re-suspended at 10 mM stock in DMSO. Further dilutions were performed in phosphate-buffer-saline (PBS) for pharmacological experiments. The cells were exposed to compounds at different concentrations for the indicated time points and sampled as described below. Briefly, the cells (4 × 10^5/mL) were seeded in 384-well plate and treated for 48 h with various concentrations (0.001 μM to 100 μM) of either one of the compounds, T101, T126, and T159, or NSC348884, as a positive control. Each plate included DMSO at 0.1% as a negative control. The metabolic cell activity was measured by using the CellTiter Blue proliferation agent (Roche) as described in the manufacturer’s procedure. Briefly, CellTiter Blue solution (Resazaurin) was added to each well and the plates were incubated at 37 °C with 5% CO2 for 4 h. During the incubation time, the resazurin is reduced to fluorescent resorufin in metabolically and proliferating living cells. The fluorescence intensity was measured using the automated Tecan plate reader (Tecan Group Ltd., Männedorf, Switzerland) at an excitation/emission wavelength of 531/572 nm. The fluorescence readouts were reported as relative fluorescence units (RFU) and read on a luminescence plate reader (Infinite 200 Pro, Tecan, CA, USA). The dose response curves ([…] (IC50)) were obtained by non-linear regression analysis using the GraphPad Prism 5.0 program. The concentration is shown as a logarithmic function. All the experiments were performed at least in triplicate, with technical repetition. The results are expressed as mean ± standard error of the mean (SEM). For the Colony Forming Unit (CFU) assay, 10 × 10^6 CD34+ human hematopoietic progenitors were received from unique healthy donors, upon signed informed consent, and were cultured in SFEM II (Serum-free medium) and P/S at a density of 1 × 10^6/mL with cytokines that are important for cell division and self-renewal: fms-like tyrosine kinase 3 (FLT3)-ligand, FLT3L (100 ng/mL), Stem Cell Factor, SCF (100 ng/mL) and Trombopoietin, and TPO (50 ng/mL) for 48 h before plating them on a Methocult medium.

The next experiment concerns SKM-1. Particulars: Homo sapiens, SKM-1, 48 h; read-out: cellular IC50.
Text: as §1

In another experiment the test system is OCI-AML3. The conditions noted are these: Homo sapiens, OCI-AML-3; OCI-AML3, 48 h; read-out: cellular IC50.
Text: as §1

Another experiment deals with OCI-AML2. Particulars: Homo sapiens, OCI-AML2, 48 h; read-out: cellular IC50.
Text: as §1

The next experiment relates to IMS-M2. The conditions noted are these: Homo sapiens, IMS-M2, 48 h; read-out: cellular IC50.
Text: as §1

Data on 1 compound can be found in article PMC9698716, “From Serendipity to Rational Identification of the 5,6,7,8-Tetrahydrobenzo[4,5]thieno[2,3-d]pyrimidin-4(3H)-one Core as a New Chemotype of AKT1 Inhibitors for Acute Myeloid Leukemia” (Pharmaceutics, 2022).

The term IC50 denotes the concentration that gives 50% inhibition. Take `O=c1[nH]c(-c2ccc(O)c(O)c2)nc2sc3c(c12)CCCC3` [T126]: the IC50 with MOLM-13 was 9.2 µM; in the experiment on SKM-1, 6.9 µM; in the experiment on OCI-AML3, 4.2 µM; with OCI-AML2 it was 2.4 µM; in the experiment with IMS-M2, 4.3 µM.
